Results as given in patent US11192877B2, “3-(5-hydroxy-1-oxoisoindolin-2-yl)piperidine-2,6-dione derivatives and uses thereof” (Novartis AG, priority 2018, dated 2021).
Read-outs that look alike come from different tables or passages of the source.

Target: IKZF2 (Helios) (Homo sapiens, UniProt Q96SW2+Q9UKS7)
Test: Prolabel quantification of IKZF2 protein levels in 293GT cells
Assay type: cell-based
Conditions: 24 h, read-out: IKZF2 % protein reduction at 10 μM, 24 h
[1] = Pro-label assay, 293GT cells, 10 μM

Sequence of IKZF2 (Helios) (Q9UKS7 whole entry): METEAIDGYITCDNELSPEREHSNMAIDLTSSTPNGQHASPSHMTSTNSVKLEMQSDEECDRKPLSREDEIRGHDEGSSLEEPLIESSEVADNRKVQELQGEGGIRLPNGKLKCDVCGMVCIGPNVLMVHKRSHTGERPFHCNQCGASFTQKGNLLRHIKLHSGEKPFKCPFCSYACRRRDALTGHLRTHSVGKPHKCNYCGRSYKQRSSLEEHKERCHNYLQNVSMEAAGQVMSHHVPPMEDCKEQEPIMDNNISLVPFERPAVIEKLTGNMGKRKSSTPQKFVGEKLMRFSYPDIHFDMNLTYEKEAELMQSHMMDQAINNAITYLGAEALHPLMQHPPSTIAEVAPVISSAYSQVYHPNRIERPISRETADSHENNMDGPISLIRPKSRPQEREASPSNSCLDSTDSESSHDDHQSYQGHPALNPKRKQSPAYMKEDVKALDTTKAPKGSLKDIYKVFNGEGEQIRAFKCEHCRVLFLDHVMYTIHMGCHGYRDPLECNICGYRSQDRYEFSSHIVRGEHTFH
Sequence of IKZF2 (Helios) (Q96SW2 whole entry): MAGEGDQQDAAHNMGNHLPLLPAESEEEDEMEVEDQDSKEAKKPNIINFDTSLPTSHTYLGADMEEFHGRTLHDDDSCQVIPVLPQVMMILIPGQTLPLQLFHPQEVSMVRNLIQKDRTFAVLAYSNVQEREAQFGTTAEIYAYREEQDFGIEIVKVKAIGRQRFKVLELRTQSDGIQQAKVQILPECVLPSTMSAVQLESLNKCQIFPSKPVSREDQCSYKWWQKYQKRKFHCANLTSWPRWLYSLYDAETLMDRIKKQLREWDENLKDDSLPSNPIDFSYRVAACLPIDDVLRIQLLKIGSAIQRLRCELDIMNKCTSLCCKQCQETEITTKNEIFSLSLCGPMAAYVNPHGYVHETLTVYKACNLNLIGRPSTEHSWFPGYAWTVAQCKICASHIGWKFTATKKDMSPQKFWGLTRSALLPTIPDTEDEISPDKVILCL
Sequence of IKZF2 (Helios) (Q16531 whole entry partner): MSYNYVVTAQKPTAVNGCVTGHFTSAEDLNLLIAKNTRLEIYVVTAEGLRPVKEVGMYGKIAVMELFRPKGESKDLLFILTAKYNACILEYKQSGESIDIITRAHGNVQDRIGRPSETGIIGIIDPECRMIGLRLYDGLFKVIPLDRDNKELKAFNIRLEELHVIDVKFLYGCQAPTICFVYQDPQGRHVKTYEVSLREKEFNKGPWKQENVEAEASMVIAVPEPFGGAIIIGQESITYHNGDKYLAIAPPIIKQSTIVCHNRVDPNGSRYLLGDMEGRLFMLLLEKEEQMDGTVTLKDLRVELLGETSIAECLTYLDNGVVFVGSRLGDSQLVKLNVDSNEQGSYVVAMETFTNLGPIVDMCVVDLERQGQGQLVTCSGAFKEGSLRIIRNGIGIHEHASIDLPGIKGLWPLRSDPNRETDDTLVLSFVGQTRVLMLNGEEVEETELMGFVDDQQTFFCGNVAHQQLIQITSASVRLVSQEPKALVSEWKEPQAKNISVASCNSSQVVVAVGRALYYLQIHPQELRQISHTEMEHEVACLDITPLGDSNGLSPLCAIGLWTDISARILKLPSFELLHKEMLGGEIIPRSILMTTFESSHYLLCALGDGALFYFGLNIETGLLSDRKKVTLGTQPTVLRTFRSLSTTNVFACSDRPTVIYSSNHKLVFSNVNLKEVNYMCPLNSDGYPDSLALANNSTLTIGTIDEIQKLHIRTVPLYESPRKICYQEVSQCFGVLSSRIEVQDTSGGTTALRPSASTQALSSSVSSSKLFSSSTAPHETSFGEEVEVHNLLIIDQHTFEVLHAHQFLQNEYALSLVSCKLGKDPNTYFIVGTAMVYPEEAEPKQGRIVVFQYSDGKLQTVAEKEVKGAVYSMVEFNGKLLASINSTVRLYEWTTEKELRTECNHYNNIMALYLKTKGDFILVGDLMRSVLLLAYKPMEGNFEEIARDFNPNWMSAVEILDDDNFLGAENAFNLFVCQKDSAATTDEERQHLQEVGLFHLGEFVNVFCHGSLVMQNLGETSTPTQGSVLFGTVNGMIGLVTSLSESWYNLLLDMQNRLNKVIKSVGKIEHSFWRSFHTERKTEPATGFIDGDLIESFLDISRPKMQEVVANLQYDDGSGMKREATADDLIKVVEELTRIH

| IKZF2 % protein reduction at 10 µM [1] | IKZF2 % protein reduction at 10 µM | Compound |
| --- | --- | --- |
| 61% |  | COC1(C)CCN([C@H]2CCCCC[C@@H]2Oc2ccc3c(c2)CN(C2CCC(=O)NC2=O)C3=O)CC1 (stereo partly drawn) [I-60, 3-(5-(((1S,2S)-2-(4-methoxy-4-methylpiperidin-1-yl)cycloheptyl)oxy)-1-oxoisoindolin-2-yl)piperidine-2,6-dione] |
| 84% |  | CC(C)CN[C@H]1CCCCC[C@@H]1Oc1ccc2c(c1)CN(C1CCC(=O)NC1=O)C2=O (stereo partly drawn) [I-61, 3-(5-(((1S,2S)-2-(isobutylamino)cycloheptyl)oxy)-1-oxoisoindolin-2-yl)piperidine-2,6-dione] |
| 88% |  | CCCN[C@H]1CCCCC[C@@H]1Oc1ccc2c(c1)CN(C1CCC(=O)NC1=O)C2=O (stereo partly drawn) [I-62, 3-(1-oxo-5-(((1S,2S)-2-(propylamino)cycloheptyl)oxy)isoindolin-2-yl)piperidine-2,6-dione] |
| 85% |  | O=C1CCC(N2Cc3cc(O[C@H]4CCCCC[C@@H]4N4CC5(COC5)C4)ccc3C2=O)C(=O)N1 (stereo partly drawn) [I-63, 3-(5-(((1S,2S)-2-(2-oxa-6-azaspiro[3.3]heptan-6-yl)cycloheptyl)oxy)-1-oxoisoindolin-2-yl)piperidine-2,6-dione] |
| 84% |  | CO[C@H]1CC[C@H](CN[C@H]2CCCCC[C@@H]2Oc2ccc3c(c2)CN(C2CCC(=O)NC2=O)C3=O)CC1 (stereo partly drawn) [I-64, 3-(5-(((1S,2S)-2-((((1r,4S)-4-methoxycyclohexyl)methyl)amino)cycloheptyl)oxy)-1-oxoisoindolin-2-yl)piperidine-2,6-dione] |
| 76% |  | O=C1CCC(N2Cc3cc(O[C@H]4CCCCC[C@@H]4NCC4CCOCC4)ccc3C2=O)C(=O)N1 (stereo partly drawn) [I-65, 3-(1-oxo-5-(((1S,2S)-2-(((tetrahydro-2H-pyran-4-yl)methyl)amino)cycloheptyl)oxy)isoindolin-2-yl)piperidine-2,6-dione] |
| 81% |  | CC1(CN[C@H]2CCCCC[C@@H]2Oc2ccc3c(c2)CN(C2CCC(=O)NC2=O)C3=O)COC1 (stereo partly drawn) [I-66, 3-(5-(((1S,2S)-2-(((3-methyloxetan-3-yl)methyl)amino)cycloheptyl)oxy)-1-oxoisoindolin-2-yl)piperidine-2,6-dione] |
| 74% |  | O=C1CCC(N2Cc3cc(O[C@H]4CCCCC[C@@H]4NCC45CC(F)(C4)C5)ccc3C2=O)C(=O)N1 (stereo partly drawn) [I-67, 3-(5-(((1S,2S)-2-(((3-fluorobicyclo[1.1.1]pentan-1-yl)methyl)amino)cycloheptyl)oxy)-1-oxoisoindolin-2-yl)piperidine-2,6-dione] |
| 90% |  | COC1CN([C@H]2CCCCC[C@@H]2Oc2ccc3c(c2)CN(C2CCC(=O)NC2=O)C3=O)C1 (stereo partly drawn) [I-68, 3-(5-(((1S,2S)-2-(3-methoxyazetidin-1-yl)cycloheptyl)oxy)-1-oxoisoindolin-2-yl)piperidine-2,6-dione] |
| 84% |  | O=C1CCC(N2Cc3cc(O[C@H]4CCCCC[C@@H]4NCC4CC(F)(F)C4)ccc3C2=O)C(=O)N1 (stereo partly drawn) [I-69, 3-(5-(((1S,2S)-2-(((3,3-difluorocyclobutyl)methyl)amino)cycloheptyl)oxy)-1-oxoisoindolin-2-yl)piperidine-2,6-dione] |
| 88% |  | CCCN[C@H]1CCCC[C@@H]1Oc1ccc2c(c1)CN(C1CCC(=O)NC1=O)C2=O (stereo partly drawn) [I-71, 3-(1-oxo-5-(((1S,2S)-2-(propylamino)cyclohexyl)oxy)isoindolin-2-yl)piperidine-2,6-dione] |
| 57% |  | CCCN(CCC)[C@H]1CCCC[C@@H]1Oc1ccc2c(c1)CN(C1CCC(=O)NC1=O)C2=O (stereo partly drawn) [I-72, 3-(5-(((1S,2S)-2-(dipropylamino)cyclohexyl)oxy)-1-oxoisoindolin-2-yl)piperidine-2,6-dione] |
| 66% |  | O=C1CCC(N2Cc3cc(O[C@H]4CCCC[C@@H]4NCc4ccncc4)ccc3C2=O)C(=O)N1 (stereo partly drawn) [I-73, 3-(1-oxo-5-(((1S,2S)-2-((pyridin-4-ylmethyl)amino)cyclohexyl)oxy)isoindolin-2-yl)piperidine-2,6-dione] |
| 58% |  | O=C1CCC(N2Cc3cc(O[C@H]4CCCC[C@@H]4N4CC5(COC5)C4)ccc3C2=O)C(=O)N1 (stereo partly drawn) [I-74, 3-(5-(((1S,2S)-2-(2-oxa-6-azaspiro[3.3]heptan-6-yl)cyclohexyl)oxy)-1-oxoisoindolin-2-yl)piperidine-2,6-dione] |
| 79% |  | O=C1CCC(N2Cc3cc(O[C@H]4CCCC[C@@H]4NCc4cccnc4)ccc3C2=O)C(=O)N1 (stereo partly drawn) [I-75, 3-(1-oxo-5-(((1S,2S)-2-((pyridin-3-ylmethyl)amino)cyclohexyl)oxy)isoindolin-2-yl)piperidine-2,6-dione] |
|  | 79% | CCn1cc(CN[C@H]2CCCC[C@@H]2Oc2ccc3c(c2)CN(C2CCC(=O)NC2=O)C3=O)cn1 (stereo partly drawn) [I-76, 3-(5-(((1S,2S)-2-(((1-ethyl-1H-pyrazol-4-yl)methyl)amino)cyclohexyl)oxy)-1-oxoisoindolin-2-yl)piperidine-2,6-dione] |
| 86% |  | CC(C)n1cc(CN[C@H]2CCCC[C@@H]2Oc2ccc3c(c2)CN(C2CCC(=O)NC2=O)C3=O)cn1 (stereo partly drawn) [I-77, 3-(5-(((1S,2S)-2-(((1-isopropyl-1H-pyrazol-4-yl)methyl)amino)cyclohexyl)oxy)-1-oxoisoindolin-2-yl)piperidine-2,6-dione] |
| 50% |  | CCN(C)[C@H]1CCCC[C@@H]1Oc1ccc2c(c1)CN(C1CCC(=O)NC1=O)C2=O (stereo partly drawn) [I-78, 3-(5-(((1S,2S)-2-(ethyl(methyl)amino)cyclohexyl)oxy)-1-oxoisoindolin-2-yl)piperidine-2,6-dione] |
| 85% |  | CCN[C@H]1CCCC[C@@H]1Oc1ccc2c(c1)CN(C1CCC(=O)NC1=O)C2=O (stereo partly drawn) [I-79, 3-(5-(((1S,2S)-2-(ethylamino)cyclohexyl)oxy)-1-oxoisoindolin-2-yl)piperidine-2,6-dione] |
| 65% |  | CN(C)[C@H]1CCCC[C@@H]1Oc1ccc2c(c1)CN(C1CCC(=O)NC1=O)C2=O (stereo partly drawn) [I-80, 3-(5-(((1S,2S)-2-(dimethylamino)cyclohexyl)oxy)-1-oxoisoindolin-2-yl)piperidine-2,6-dione] |
| 85% |  | O=C1CCC(N2Cc3cc(O[C@H]4CCCC[C@@H]4NCC4COC4)ccc3C2=O)C(=O)N1 (stereo partly drawn) [I-81, 3-(5-(((1S,2S)-2-((oxetan-3-ylmethyl)amino)cyclohexyl)oxy)-1-oxoisoindolin-2-yl)piperidine-2,6-dione] |
| 58% |  | O=C1CCC(N2Cc3cc(O[C@H]4CCCC[C@@H]4NCCO)ccc3C2=O)C(=O)N1 (stereo partly drawn) [I-82, 3-(5-(((1S,2S)-2-((2-hydroxyethyl)amino)cyclohexyl)oxy)-1-oxoisoindolin-2-yl)piperidine-2,6-dione] |
| 86% |  | O=C1CCC(N2Cc3cc(O[C@H]4CCCC[C@@H]4N4CCCC4)ccc3C2=O)C(=O)N1 (stereo partly drawn) [I-83, 3-(1-oxo-5-(((1S,2S)-2-(pyrrolidin-1-yl)cyclohexyl)oxy)isoindolin-2-yl)piperidine-2,6-dione] |
| 35% |  | O=C1CCC(N2Cc3cc(O[C@H]4CCCC[C@@H]4N4CCOCC4)ccc3C2=O)C(=O)N1 (stereo partly drawn) [I-84, 3-(5-(((1S,2S)-2-morpholinocyclohexyl)oxy)-1-oxoisoindolin-2-yl)piperidine-2,6-dione] |
| 69% |  | O=C1CCC(N2Cc3cc(O[C@H]4CCCC[C@@H]4NCc4ccccn4)ccc3C2=O)C(=O)N1 (stereo partly drawn) [I-85, 3-(1-oxo-5-(((1S,2S)-2-((pyridin-2-ylmethyl)amino)cyclohexyl)oxy)isoindolin-2-yl)piperidine-2,6-dione] |
